# Marks after values point to notes of the source that are not given here.
# Tested on: normal human keratinocytes
# Assay: Keratinocyte differentiation: filaggrin immunolabeling normalized to nuclei
# Type: cell-based
# Conditions: positive reference 1 mMol/L, 72 hours
# Procedure: To do this, normal human keratinocytes were cultured at 37° C. and 5% CO2. After a period of 4 days, they were treated with the products whose action it is desired to evaluate. After culturing for a further 72 hours at 37° C. and 5% CO2 with the test products, the cell lawns were rinsed, dried and then fixed with glacial methanol. Filaggrin, a keratinocyte differentiation marker, was detected and quantified by fluorescent immunolabeling with an anti-filaggrin primary antibody and a fluorescent secondary antibody to reveal the former. The nuclei were detected and quantified by marking with Hoechst, a fluorescent stain which binds to DNA and thus labels the nuclei. This last labeling was performed to normalize the results obtained previously on filaggrin. An increase in the filaggrin (area of labeling)/nuclei (area of labeling) ratio is evidence of an increase in the differentiation of the epidermal keratinocytes, and consequently of reinforcement of the barrier effect of the epidermis, which constitutes one of the factors of the reinforcement of the state of moisturization of the skin. An increase in keratinocyte differentiation makes it possible to reinforce the barrier effect of the human epidermis, and consequently to decrease the unesthetic effects that may be caused by the dehydration of human skin.
compound,measurement,setting,value
[Ca+2].[Cl-].[Cl-] [CaCl2],Filaggrin (area of labeling)/nuclei (area of labeling),,0.0245 ± 0.0045
same,% stimulation vs control,filaggrin/nuclei,621* %
